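96-well plates; 48 h exposure; 5 concentrations. Endpoints by linear interpolation between flanking doses. Not reached: highest tested concentration assigned. GI50 = concentration required for 50% inhibition of growth. Definition used: TGI = concentration required for complete inhibition of growth.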
How the values were obtained:
Test in all cases: growth of human tumour cells (NCI), 48 h
UACC-257 melanoma = tested on: UACC-257 melanoma
COLO 205 colon = tested on: COLO 205 colon
HCC-2998 colon = tested on: HCC-2998 colon
K-562 leukemia = tested on: K-562 leukemia
BT-549 breast = tested on: BT-549 breast
HT29 colon = tested on: HT29 colon
LOX IMVI melanoma = tested on: LOX IMVI melanoma
NCI-H23 lung = tested on: NCI-H23 lung
MDA-MB-435 = tested on: MDA-MB-435
SF-539 CNS = tested on: SF-539 CNS

Row | Structure (SMILES) | GI50 (UACC-257 melanoma) [nM] | TGI (UACC-257 melanoma) [µM] | GI50 (COLO 205 colon) [nM] | TGI (COLO 205 colon) [µM] | GI50 (HCC-2998 colon) [nM] | TGI (HCC-2998 colon) [µM] | GI50 (K-562 leukemia) [nM] | TGI (K-562 leukemia) [µM] | GI50 (BT-549 breast) [µM] | TGI (BT-549 breast) [µM] | GI50 (HT29 colon) [nM] | TGI (HT29 colon) [µM] | GI50 (LOX IMVI melanoma) [nM] | TGI (LOX IMVI melanoma) [µM] | GI50 (NCI-H23 lung) [µM] | TGI (NCI-H23 lung) [µM] | GI50 (MDA-MB-435) [nM] | TGI (MDA-MB-435) [µM] | GI50 (SF-539 CNS) [µM] | TGI (SF-539 CNS) [µM]
1 | OC(c1cc(C(F)(F)F)nc2c(C(F)(F)F)cccc12)C1CCCCN1 (centres undefined) | 2200 | 6.53 | 1830 | 3.3 | 1460 | 3.22 | 3120 | 6.47 | 3.24 | 8.67 | 1990 | 3.92 | 1650 | 3.15 | 2.85 | 11.3 | 1800 | 3.66 | 2.72 | 6.34
2 | c1ccc(Nc2ncc(-c3ccccc3)o2)cc1 | > 25000 | > 25 | > 25000 | > 25 | > 25000 | > 25 | > 25000 | > 25 | > 25 | > 25 | > 25000 | > 25 | 22600 | > 25 | > 25 | > 25 | > 25000 | > 25 | > 25 | > 25
3 | CCCCCCCCCCSC(=N)N (tested in a mixture with another compound) | 2460 | 5.93 | 1860 | 3.78 | 1600 | 3.05 | 1720 | 5.88 | 6.65 | 25.9 | 1780 | 4.34 | 2720 | 11.1 | 11.1 | 25.9 | 1700 | 3.27 | 10.9 | 23.8
4 | COc1ccc(Cn2c(Br)c3c(c2Br)-c2nc(N)sc2CC3)cc1 | 8480 | 22.3 | 2200 | 4.42 | 13300 | 28.2 | 2430 | 57.9 | 9.16 | 30.4 | 4140 | 13.2 | 3350 | 16.3 | 10.6 | 38.6 | 407 | 10.4 | 3.48 | 13.5
5 | C[C@@H]1CC[C@H]2C(C)(C)[C@H]3C[C@@]12CC[C@@]3(C)O | – | > 100 | – | > 100 | – | > 100 | – | > 100 | – | > 100 | – | > 100 | – | > 100 | – | > 100 | – | > 100 | – | > 100
6 | c1ccc(-c2n(Cc3ccc4ccccc4n3)cc[n+]2Cc2ccc3ccccc3c2)cc1 | 557 | 3.03 | 752 | 2.26 | 767 | 2.24 | 427 | 4.36 | 1.63 | 3.7 | 979 | 4.59 | 955 | 2.31 | 0.731 | 4.87 | 799 | 2.5 | 1.45 | 4.64
7 | COc1ccc2ncnc(Nc3ccc(OCc4ccccc4)cc3)c2c1 | 7470 | > 25 | 7960 | > 25 | 6420 | 18 | 9010 | > 25 | 7.91 | > 25 | 6540 | > 25 | 7850 | > 25 | 8.48 | > 25 | 7220 | > 21.1 | 8.96 | > 25
8 | COC(=O)c1cc2oc(/C=C3/SC(=S)N(NC(C)=O)C3=O)cc2n1C | 30100 | > 100 | 22400 | > 100 | 12000 | 29.5 | 24700 | > 100 | 6.13 | 22.7 | 27200 | > 100 | 11100 | 27.9 | 16.6 | 50.1 | 17600 | > 100 | 12.9 | 29.1
9 | NC(=S)N/N=C\c1nccc2c(C(F)(F)F)cccc12 | 290 | 0.94 | 237 | 10.8 | 411 | 15.4 | 440 | 21.2 | 0.395 | 7.71 | 524 | 16.5 | 277 | 10.8 | 0.446 | > 49 | 481 | 31.5 | 0.243 | 0.857
10 | COc1c2ccccc2c(OC)c2[nH]c(=O)ccc12 | 2500 | 6.39 | 4300 | 14.9 | 13200 | > 58.8 | 6390 | > 100 | 2.07 | 4.51 | 4660 | > 57 | 1840 | > 23 | 0.925 | 3.47 | 1980 | 4.07 | 4.19 | > 36.5
11 | NCCNCCNCCN | > 100000 | > 100 | > 100000 | > 100 | > 100000 | > 100 | > 100000 | > 100 | > 100 | > 100 | > 100000 | > 100 | > 100000 | > 100 | > 100 | > 100 | > 100000 | > 100 | > 100 | > 100
12 | O=C(Nc1cccc(C(F)(F)F)c1)Nc1cccc(C(F)(F)F)c1 | 1310 | 4.95 | 985 | 2.59 | 1510 | 6.5 | 431 | 10.3 | 2.29 | 6.44 | 840 | 6.06 | 1000 | 2.28 | 0.349 | 1.97 | 1440 | 5.51 | 2.13 | 5.23
13 | CC(=C(c1ccc(OCCN2CCCCC2)cc1)c1ccc(OCCN2CCCCC2)cc1)c1ccc(Cl)cc1 | 454 | 0.884 | 460 | 0.921 | 396 | 0.755 | 77.5 | 0.362 | 0.414 | 0.787 | 350 | 0.779 | 406 | 0.754 | 0.466 | 0.913 | 416 | 0.777 | 0.393 | 0.738
14 | O=C1NC(=NCc2ccccc2)S/C1=C\c1ccc2ncccc2c1 | > 25000 | > 25 | > 25000 | > 25 | > 25000 | > 25 | > 25000 | > 25 | > 25 | > 25 | > 25000 | > 25 | > 25000 | > 25 | > 25 | > 25 | > 25000 | > 25 | > 25 | > 25
15 | COC(=O)[C@]12CC[C@@H](C)[C@H](C)[C@@H]1C1=CC[C@@H]3[C@@]4(C)C[C@@H](O)[C@H](O)[C@@](C)(CO)[C@@H]4[C@H](O)C[C@@]3(C)[C@]1(C)CC2 | 16800 | 35.8 | 14800 | 31.2 | 14600 | 31.2 | 12700 | 45.7 | 12.6 | 26.4 | 17100 | 36.3 | 14000 | 28 | 16.8 | 36.6 | 13000 | 27.3 | 14 | 29
16 | C=C(C)C(=O)O[C@@H]1C[C@@]2(C)O[C@@H]2C[C@H](O)/C(C)=C/[C@H]2OC(=O)C(=C)[C@@H]21 | – | > 100 | – | > 100 | – | > 100 | – | > 100 | – | > 100 | – | > 100 | – | > 100 | – | > 100 | – | > 100 | – | > 100
17 | Nc1nc2[nH]cc(CCc3ccc(C(=O)N[C@@H](CCC(=O)O)C(=O)O)cc3)c2c(=O)[nH]1 | – | > 100 | > 34600 | > 100 | 57.6 | > 100 | – | > 100 | > 71.7 | > 100 | 35000 | > 100 | 111 | > 100 | – | > 100 | – | > 100 | 0.0774 | –
18 | COc1cc(-c2nn(-c3cccc(NC(=O)c4ccccc4)c3)cc2-c2ccncc2)ccc1Cl | 630 | > 100 | 522 | 3.23 | 2130 | 33.6 | 390 | > 100 | 0.98 | > 100 | 365 | > 45 | 567 | > 100 | 1.12 | > 100 | 184 | 0.508 | 0.413 | 2.65
19 | Fc1cc(-c2nnc3n2N=C(c2ccc(Cl)cc2)CS3)c(Cl)cc1Cl | 14700 | 28.8 | 7080 | 49.1 | 15900 | 31.1 | 1570 | > 100 | 3.27 | 8.66 | 2710 | – | 1770 | 3.86 | 6.67 | 20.8 | 4970 | 18.4 | 3.35 | 11.1

Reference: PubChem BioAssay (NCI)
